Laboratory results: patent EP4755878A1, “PHOTOCHROMIC COMPOUND, PHENOL DERIVATIVE, CURABLE COMPOSITION, OPTICAL ARTICLE, LENS, AND EYEGLASS” (TOKUYAMA CORPORATION, priority 2023, dated 2025)

Assay: Photochromic properties of photochromic laminate (plastic lens) made by coating method
Format: physicochemical
Conditions: for Color developing density at 23°C: absorbance difference after 240 seconds irradiation at 23°C; for Color developing density at 35°C: absorbance difference after 240 seconds irradiation at 35°C; for Maximum absorption wavelength: after color development, second absorption wavelength (lower line of pair)
Description: First, the photochromic compound obtained in Example 1 above, a photoinitiator, and polymerizable compounds were mixed to obtain a curable composition.
As the polymerizable compounds, a blend of the following radically-polymerizable monomers in combination was used.
• Polyethylene glycol dimethacrylate (average molecular weight: 736): 42 parts by mass • Polyethylene glycol dimethacrylate (average molecular weight: 536): 12 parts by mass • Trimethylolpropane trimethacrylate: 38 parts by mass • γ-Methacryloyloxypropyltrimethoxysilane: 2 parts by mass • Glycidyl methacrylate: 1 part by mass.
Note that in the curable composition, the photochromic compound obtained in Example 1 above was added to be 0.25 mmol taking the total amount of the radically-polymerizable monomers as 100 g. The following were used as additives.
(stabilizer, Irganox 245): 1 part by mass Bis(1,2,2,6,6-pentamethyl-4-piperidyl) sebacate: 3 parts by mass Leveling agent from DuPont Toray Specialty Materials K.K. (L7001): 0.1 parts by mass.
Note that the above-mentioned additives are described with blending ratios taking a total of the radically-polymerizable monomers as 100 parts by mass.
Using this curable composition, a photochromic laminate was obtained by a lamination process described below with the polymerization described below being carried out.
First, a thiourethane plastic lens with a center thickness of 2 mm and a refractive index of 1.60 was prepared as an optical substrate. Note that the thiourethane plastic lens had been alkaline-etched beforehand in a 10% aqueous sodium hydroxide solution at 50°C for 5 minutes, and then thoroughly washed with distilled water.
A spin coater (1H-DX2, manufactured by MIKASA CO., LTD) was used to coat a surface of the above-mentioned plastic lens with a moisture-curable primer (product name: TR-SC-P, manufactured by Tokuyama Corporation) at a rotation speed of 70 rpm for 15 seconds, followed by at 1000 rpm for 10 seconds. Then, about 2 g of the photochromic curable composition obtained as above was spin-coated at a rotation speed of 60 rpm for 40 seconds, followed by at 600 rpm for 10 to 20 seconds so as to achieve a photochromic coating layer with a film thickness of 40 µm.
The lens having the surface coated with the photochromic curable composition (photochromic coating layer) was irradiated with light for 90 seconds in a nitrogen gas atmosphere using a metal halide lamp with an output of 200 mW/cm^2 to cure the coating film. The coating was then further heated at 110°C for 1 hour to produce a photochromic laminate with a photochromic layer.
Photochromic laminates were produced using the photochromic compounds obtained in Examples 2 to 19 in the same manner as in Example 20.
Photochromic laminates were obtained in the same manner as in Example 20 using photochromic compounds represented by the following formulas (A) to (F). [drawing 143] [drawing 144] [drawing 145] [drawing 146] [drawing 147] [drawing 148] [drawing 149] [drawing 150]
The resulting photochromic laminates were evaluated by the methods described below.
Table 3 summarizes the results of Examples 20, 32, and 34, and Comparative Examples 1 to 6, and Table 4 summarizes the results of Examples 21 to 31, 33, and 35 to 38. The relationship between the fading half-life at 23°C and the color development ratio at the higher temperature of the photochromic laminates according to Examples and Comparative Examples are shown in a graph in FIG. 1.
Photochromic laminates were formed using the photochromic compound obtained in Examples 61 to 71 in the same manner as in Example 20.

Structure (SMILES) | Color developing density at 23°C (first absorption wavelength) | Color developing density at 23°C (second absorption wavelength) | Color developing density at 35°C (first absorption wavelength) | Color developing density at 35°C (second absorption wavelength) | Maximum absorption wavelength [nm]
CCCCOCCC1(CCOCCCC)c2cc(N(c3ccccc3)c3ccc(C)cc3)ccc2-c2c1c1c(c3cc(OC)c(OC)cc23)OC(c2ccc(OC)cc2)(c2ccc(N3CCOCC3)cc2)C=C1 (centres unmarked) [Formula (68-2)] | 0.79 - | 0.73 - | 0.51 - | 0.47 - | 636
COCCN(c1ccccc1)c1ccc2c(c1)C(CCOC)(CCOC)c1c3c(c4cc(C)c(N5CCOCC5)cc4c1-2)OC(c1ccc(OC)cc1)(c1ccc(OC)cc1)C=C3 [Formula (10-3)] | 1.24 - | 1.01 - | 0.83 - | 0.68 - | 594
CCC1(CC)c2cc(N3CCOc4ccccc43)ccc2-c2c1c1c(c3cc(OC)ccc23)OC(c2ccc(OCCOC(=O)CCCCCCCCC(=O)OCCOc3ccc(C4(c5ccc(N6CCOCC6)cc5)C=Cc5c6c(c7ccc(OC)cc7c5O4)-c4ccc(N5CCOc7ccccc75)cc4C6(CC)CC)cc3)cc2)(c2ccc(N3CCOCC3)cc2)C=C1 (centres unmarked) [Formula (19-3)] | 0.55 - | 0.88 - | 0.34 - | 0.57 - | 629
CCCCOc1ccc(C2(c3ccc(OC)cc3)C=Cc3c4c(c5cc(-c6ccc(C(F)(F)F)cc6)c(OC)cc5c3O2)-c2ccc(N(C)c3ccccc3)cc2C4(CCC)CCC)cc1 (centres unmarked) [Formula (63-2)] | 0.71 - | 0.80 - | 0.50 - | 0.57 - | 626
CCCCCCOc1ccc(C2(c3ccc(OCCCCCC)cc3)C=Cc3c4c(c5cc(N6CCC(C(F)(F)F)CC6)c(OC)cc5c3O2)-c2ccc(N(c3ccccc3)c3ccccc3)cc2C42CCC3(CCCCC3)CC2)cc1 [Formula (64-3)] | 1.94 - | 0.92 - | 1.38 - | 0.67 - | 611
COc1ccc(C2(c3ccc(N4CCOCC4)cc3)C=Cc3c4c(c5cc(Sc6c(C)cccc6C)c(OC)cc5c3O2)-c2ccc(N3CCOc5cc(F)ccc53)cc2C42CC(C)(C)CC(C)(C)C2)cc1 (centres unmarked) [Formula (11-4)] | 0.51 - | 0.51 - | 0.31 - | 0.30 - | 620
CCCCCCOc1ccc(C2(c3ccc(OCCCCCC)cc3)C=Cc3c4c(c5ccc(OC(F)(F)F)cc5c3O2)-c2ccc(N(C)c3ccc(C(F)(F)F)cc3)cc2C42CCC(CC)(CC)CC2)cc1 [Formula (6-3)] | 0.37 - | 0.77 - | 0.22 - | 0.46 - | 598
CCCCCCC1(CCCCCC)c2cc(N(c3ccccc3)c3ccccc3)ccc2-c2c1c1c(c3cc(OC)c(-c4ccccc4N4CCOCC4)cc23)OC(c2ccc(OC)cc2)(c2ccc(OC)c(F)c2)C=C1 (centres unmarked) [Formula (70-4)] | 1.44 - | 1.24 - | 1.16 - | 1.01 - | 621
CCCC1(CCC)c2cc(N(C)c3ccccc3)ccc2-c2c1c1c(c3cc(OC)c(-c4ccc(N5CC(C)OC(C)C5)cc4)cc23)OC(c2ccc(N3CCOCC3)cc2)(c2ccc(OC)c(OC)c2)C=C1 (centres unmarked) [Formula (71-5)] | 1.43 - | 1.36 - | 1.17 - | 1.10 - | 643
COc1ccc2c3c(c4c(c2c1)OC(c1ccc(F)cc1)(c1ccc(N2CCOCC2)cc1)C=C4)C(CCC(F)(F)F)(CCC(F)(F)F)c1cc(N(C)c2ccc(C)cc2)ccc1-3 (centres unmarked) [Formula (14-3)] | 0.73 - | 1.13 - | 0.51 - | 0.80 - | 628
CCCOc1ccc(C2(c3ccc(OCCC)cc3)C=Cc3c4c(c5cc(N(C)c6ccccc6)c(OC)cc5c3O2)-c2ccc(N(C)c3ccccc3)cc2C4(CCC)CCC)cc1 [Formula (61-4)] | 1.37 - | 0.88 - | 1.03 - | 0.64 - | 619
CCCOc1ccc(C2(c3ccc(OCCC)cc3)C=Cc3c4c(c5ccc(-c6ccc(OC)cc6OC)cc5c3O2)-c2ccc(N(C)c3ccc(F)cc3)cc2C4(CC)CC)cc1 [Formula (5-4)] | 0.72 - | 1.18 - | 0.53 - | 0.88 - | 596
CCCC1(CCC)c2cc(N3CCCc4ccccc43)ccc2-c2c1c1c(c3cc(OC)ccc23)OC(c2ccc(OC)cc2)(c2ccc(OCCCO)cc2)C=C1 (centres unmarked) [Formula (17-3)] | 0.85 - | 0.96 - | 0.61 - | 0.70 - | 613
CCCCOCCC1(CCOCCCC)c2cc(N(c3ccccc3)c3ccccc3)ccc2-c2c1c1c(c3cc(OC)c(N(C)c4ccc(C(F)(F)F)cc4)cc23)OC(c2ccc(OC)cc2)(c2ccc(OCCC)cc2)C=C1 (centres unmarked) [Formula (65-2)] | 0.85 - | 0.77 - | 0.57 - | 0.53 - | 623
CCC1(CC)c2cc(N(C)c3ccccc3)ccc2-c2c1c1c(c3cc(OC)c(-c4ccc(OC)cc4OC)cc23)OC(c2ccc(OC)cc2)(c2ccc(N3CCOCC3)cc2)C=C1 (centres unmarked) [Formula (67-2)] | 0.84 - | 1.00 - | 0.60 - | 0.72 - | 639
CCCCCC1(CCCCC)c2cc(N3CCOc4ccccc43)ccc2-c2c1c1c(c3cc(OC)c(-c4ccc(N5CCOc6ccccc65)cc4)cc23)OC(c2ccc(OC)cc2)(c2ccc(OC)cc2)C=C1 [Formula (66-5)] | 1.37 - | 1.03 - | 1.09 - | 0.82 - | 602
COc1ccc(C2(c3ccc(OC)cc3)C=Cc3c4c(c5ccc(OC)cc5c3O2)-c2ccc(OC(F)(F)F)cc2C4(C)C)cc1 [Formula(F), reference compound] | 0.62 - | 0.75 - | 0.37 - | 0.45 - | 565
COc1ccc(C2(c3ccc(OC)cc3)C=Cc3c4c(c5ccc(OC)cc5c3O2)-c2ccc(Oc3ccccc3)cc2C4(C)C)cc1 [Formula(E), reference compound] | 0.71 - | 0.96 - | 0.46 - | 0.63 - | 579
COCCOCCOCCC1(CCOCCOCCOC)c2cc(N(c3ccccc3)c3ccccc3)ccc2-c2c1c1c(c3cc(OC)c(-c4c(OC)cc(OC)cc4OC)cc23)OC(c2ccc(OC)cc2)(c2ccc(OC)cc2)C=C1 [Formula (62-5)] | 1.20 - | 0.90 - | 0.88 - | 0.66 - | 625
